Results: article PMC4106900 (Journal of medicinal chemistry, 2012)
Structures can show the parent of a compound that is named as a salt.

Assays:
[1] = Ex vivo determination of radiometabolites in mouse plasma, liver and brain
[2] = Small-animal PET imaging, baseline brain uptake of [18F]13; format: in vivo, mouse
[3] = Stability of formulated [18F]13 by analytical reverse-phase HPLC; format: physicochemical; details: saline/ethanol (9:1, total 10 mL)
[4] = biological target: emopamil binding protein (EBP); details: read-out: Ki for EBP; cited from earlier work
[5] = biological target: vesicular acetylcholine transporter (VAChT); details: read-out: Ki for VAChT; cited from earlier work
[6] = cited from earlier work; for time of maximum uptake in the brain post injection: normal mice
[7] = biological target: S1R; details: read-out: Ki for S1R; cited from earlier work
[8] = tested on: neuronal (α-bungarotoxin insensitive) nicotinic receptors; assay: NovaScreen radioligand displacement screen; format: binding; details: 100 nM screening concentration
[9] = tested on: calcium L type channels; assay: NovaScreen radioligand displacement screen; format: binding; details: 100 nM screening concentration
[10] = tested on: sodium, site 2 channels; assay: NovaScreen radioligand displacement screen; format: binding; details: 100 nM screening concentration
[11] = In vitro half-life in rat liver microsomes
[12] = biological target: acetylcholine esterase (Homo sapiens, UniProt P22303); assay: NovaScreen radioligand displacement screen; format: binding; details: 100 nM screening concentration
Sequence of acetylcholine esterase (P22303 32-614): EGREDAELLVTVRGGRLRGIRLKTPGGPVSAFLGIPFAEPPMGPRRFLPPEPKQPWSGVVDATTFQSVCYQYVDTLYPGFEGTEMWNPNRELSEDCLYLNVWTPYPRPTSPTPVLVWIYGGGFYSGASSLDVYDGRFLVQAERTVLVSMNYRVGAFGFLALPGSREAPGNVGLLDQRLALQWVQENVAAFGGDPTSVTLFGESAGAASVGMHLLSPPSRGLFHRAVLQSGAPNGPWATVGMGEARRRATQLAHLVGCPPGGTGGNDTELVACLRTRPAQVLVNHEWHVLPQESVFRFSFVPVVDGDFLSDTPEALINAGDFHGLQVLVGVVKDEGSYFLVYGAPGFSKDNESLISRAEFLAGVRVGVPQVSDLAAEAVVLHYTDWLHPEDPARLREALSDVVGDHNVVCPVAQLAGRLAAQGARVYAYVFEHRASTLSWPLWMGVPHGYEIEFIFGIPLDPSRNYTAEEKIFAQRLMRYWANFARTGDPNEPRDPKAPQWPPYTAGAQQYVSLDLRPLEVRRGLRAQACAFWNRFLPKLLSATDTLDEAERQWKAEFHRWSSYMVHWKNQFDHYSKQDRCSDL

[13] = tested on: opioid receptors; assay: Radioligand displacement screen; format: binding; details: 100 nM screening concentration
[14] = tested on: α2-adrenoceptors; assay: NovaScreen radioligand displacement screen; format: binding; details: 100 nM screening concentration
[15] = tested on: peripheral muscarinic receptors; assay: NovaScreen radioligand displacement screen; format: binding; details: 100 nM screening concentration
[16] = tested on: 59 targets (non-SR sites); assay: NovaScreen and in-house profile of 59 targets; format: binding; details: 10,000 nM screening concentration
[17] = biological target: S1Rs (Mus musculus, UniProt O55242); assay: Small-animal PET blocking studies of [18F]13 binding in brain; format: in vivo; details: pre-treatment 1 mg/kg, 10 min prior to iv [18F]13, whole mouse brain
Sequence of S1Rs (O55242 whole entry): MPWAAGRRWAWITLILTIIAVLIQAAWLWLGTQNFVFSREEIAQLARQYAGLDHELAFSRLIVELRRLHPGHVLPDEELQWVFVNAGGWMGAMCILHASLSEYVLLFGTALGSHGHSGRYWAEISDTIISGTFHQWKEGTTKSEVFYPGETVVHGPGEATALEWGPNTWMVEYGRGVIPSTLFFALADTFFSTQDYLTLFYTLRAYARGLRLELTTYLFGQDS

## O=c1sc2cc(CCCF)ccc2n1CCN1CCCCCC1 [[^18F]13, 6-(3-fluoropropyl)-3-(2-(azepan-1-yl)ethyl)benzo[d]thiazol-2(3H)-one]
[1]; 30 min post administration
  percentage of intact tracer in plasma: 60%
[1]; 60 min post administration
  percentage of intact tracer in plasma: 50%
[1]; throughout the study (30 and 60 min)
  percentage of intact tracer in brain: 100%
[2]; baseline TAC, whole mouse brain
  brain uptake at 60 min: 6 %ID/g
[2]; baseline TAC, whole mouse brain, within the first few minutes
  maximum uptake in brain: ~ 17 %ID/g
[2]; mouse brain
  brain uptake at 60 min post injection as percent of maximum: 65%
[3]
  time formulated tracer shown to be stable: at least 5.5 hours

## COc1cc(CCN2CCN(CCCc3ccccc3)CC2)ccc1O[11CH3] [compound 3]
[4]
  Ki: 1.7 nM
[5]
  Ki: 50 nM

## COc1cc(CCN2CCN(CCCc3ccccc3)CC2)ccc1OC[18F] [compound 4]
[6]
  time of maximum uptake in the brain post injection: 30 min

## FCCC1OC2(CCN(Cc3ccccc3)CC2)c2ccccc21 (centres unmarked) [compound 8]
[6]; mouse brain, biodistribution
  brain level at 60 min post injection as percent of maximum: 81%
[6]
  time of maximum uptake in the brain post injection: 30 min

## CCCc1ccc2c(c1)sc(=O)n2CCN1CCCCCC1 [compound 9]
[7]
  Ki: 0.56 nM

## O=c1sc2cc(CCCF)ccc2n1CCN1CCCCCC1 [compound 13, 3-(2-(azepan-1-yl)ethyl)-6-(3-fluoropropyl)benzo[d]thiazol-2(3H)-one hydrochloride]
[8]
  displacement of the radioligand: < 50%
[9]
  displacement of the radioligand: < 50%
[10]
  displacement of the radioligand: < 50%
[11]
  clearance: 0.18 mL/min/g
[12]
  displacement of the radioligand: < 50%
[13]
  displacement of the radioligand: < 50%
[14]
  displacement of the radioligand: < 50%
[15]
  displacement of the radioligand: < 50%
[16]
  displacement of the radioligand: < 50%

## CN(C)CCN(C)CCc1ccc(Cl)c(Cl)c1 [compound 18, N-[2-(3,4-dichlorophenyl)ethyl]-N-methyl-2-(dimethylamino)-ethylamine]
[17]
  reduction of [18F]13 binding in the brain at 60 min: 81%
